Where two headings read alike, the source gives them in different places.
How the values were obtained:
[1] = biological target: wild-type human cardiac sodium channel, hNaV 1.5 (Peak INa) (Homo sapiens, UniProt Q14524); assay: Peak INa screening assay (tonic block and use-dependent block); format: cell-based
Method: The assay uses an HEK293 (human embryonic kidney) cell line heterologously expressing the wild-type human cardiac sodium channel, hNaV 1.5, purchased from Millipore (Billerica, Mass.). No beta subunits were coexpressed with the Na channel alpha subunit. Cells are maintained with standard tissue culture procedures and stable channel expression is maintained with 400 μg/mL Geneticin in the culture medium. […] Currents are digitized at 25 kHz and low-pass filtered at 5 kHz and stored in the Sophion Bioscience Oracle database (Sophion Bioscience, Copenhagen, Denmark). Analysis is performed using QPatch Assay software and data are compiled in Excel 2010 (Microsoft, Seattle, Wash., U.S.A.). Compound stocks are routinely made by the Gilead Sample Bank in vials to 10 mM in dimethyl sulfoxide (DMSO). In some cases, when compounds are not soluble in DMSO, they are made in 100% ethanol. Stocks are sonicated as necessary. The extracellular solution for screening Late INa is composed of: 140 mM NaCl, 4 mM KCl, 1.8 mM CaCl2, 1 mM MgCl2, 10 mM HEPES and 10 mM Dextrose with pH adjusted to 7.35 using NaOH. The intracellular solution contains: 105 mM CsF, 20 mM CsCl, 10 NaF, 2 mM EGTA, 10 mM HEPES and 10 mM Dextrose with pH adjusted to 7.35 with CsOH. Compounds are diluted in extracellular solution using a MicroLab Nimbus (Hamilton Robotics, Reno, Nev.) to between 0.3 and 3 μM in glass vials and transferred to glass well plates before robotic addition to the cells. […] It is contemplated that the compounds of Formula I avoid significant block of peak INa. […] The intracellular solution used for the Peak INa assay is the same as outlined for the Late INa assay (see above). After establishing the whole cell recording configuration, channels were stimulated to open with low frequency (0.1 Hz) for so that the recording can be monitored and the extent to which the recording has stabilized can be assessed. The test compound is then applied at 1 or 3 μM was added 2 times at 60 second intervals. After the second compound addition, a 200 second wait period was imposed to allow for equilibration. Voltage protocols for TB and UDB are were performed in the absence and presence of compound and TB and UDB are calculated with respect to the compound free condition. Both TB and UDB were analyzed by incorporating rundown correction for the peak INa.

hNaV1.1 (SCN1A) = hNaV1.1 (SCN1A) (Homo sapiens, UniProt P35498); assay: Use-dependent inhibition of the CNS NaV1.1 sodium channel; format: cell-based; settings: % inhibition, 25 Hz; for inhibition at 1 µM: use-dependent block at 1 uM, read-out: Nav1.1 UDB 25 Hz 1 uM; for inhibition at 10 µM: use-dependent block at 10 uM, read-out: Nav1.1 UDB 25 Hz 10 uM
Procedure, shortened: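 Whole-cell automated patch clamp on HEK-293 cells stably expressing hNaV1.1, 23-25° C., CsF internal solution. Peak current at pulse 20 of a 25 Hz train (0 mV, 20 ms) from −120 mV, normalized to pulse 1; percentage inhibition versus compound-free condition.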

[2] = % inhibition, use-dependent block of peak INa at 3 uM, 3 Hz, pulse 50, read-out: Nav1.5 Peak UDB 3 Hz 3 uM
[3] = read-out: Nav1.5 Peak TB 3 uM, % inhibition, tonic block of peak INa at 3 uM, 0.1 Hz, holding -100 mV

Sequence of wild-type human cardiac sodium channel, hNaV 1.5 (Peak INa) (Q14524 whole entry): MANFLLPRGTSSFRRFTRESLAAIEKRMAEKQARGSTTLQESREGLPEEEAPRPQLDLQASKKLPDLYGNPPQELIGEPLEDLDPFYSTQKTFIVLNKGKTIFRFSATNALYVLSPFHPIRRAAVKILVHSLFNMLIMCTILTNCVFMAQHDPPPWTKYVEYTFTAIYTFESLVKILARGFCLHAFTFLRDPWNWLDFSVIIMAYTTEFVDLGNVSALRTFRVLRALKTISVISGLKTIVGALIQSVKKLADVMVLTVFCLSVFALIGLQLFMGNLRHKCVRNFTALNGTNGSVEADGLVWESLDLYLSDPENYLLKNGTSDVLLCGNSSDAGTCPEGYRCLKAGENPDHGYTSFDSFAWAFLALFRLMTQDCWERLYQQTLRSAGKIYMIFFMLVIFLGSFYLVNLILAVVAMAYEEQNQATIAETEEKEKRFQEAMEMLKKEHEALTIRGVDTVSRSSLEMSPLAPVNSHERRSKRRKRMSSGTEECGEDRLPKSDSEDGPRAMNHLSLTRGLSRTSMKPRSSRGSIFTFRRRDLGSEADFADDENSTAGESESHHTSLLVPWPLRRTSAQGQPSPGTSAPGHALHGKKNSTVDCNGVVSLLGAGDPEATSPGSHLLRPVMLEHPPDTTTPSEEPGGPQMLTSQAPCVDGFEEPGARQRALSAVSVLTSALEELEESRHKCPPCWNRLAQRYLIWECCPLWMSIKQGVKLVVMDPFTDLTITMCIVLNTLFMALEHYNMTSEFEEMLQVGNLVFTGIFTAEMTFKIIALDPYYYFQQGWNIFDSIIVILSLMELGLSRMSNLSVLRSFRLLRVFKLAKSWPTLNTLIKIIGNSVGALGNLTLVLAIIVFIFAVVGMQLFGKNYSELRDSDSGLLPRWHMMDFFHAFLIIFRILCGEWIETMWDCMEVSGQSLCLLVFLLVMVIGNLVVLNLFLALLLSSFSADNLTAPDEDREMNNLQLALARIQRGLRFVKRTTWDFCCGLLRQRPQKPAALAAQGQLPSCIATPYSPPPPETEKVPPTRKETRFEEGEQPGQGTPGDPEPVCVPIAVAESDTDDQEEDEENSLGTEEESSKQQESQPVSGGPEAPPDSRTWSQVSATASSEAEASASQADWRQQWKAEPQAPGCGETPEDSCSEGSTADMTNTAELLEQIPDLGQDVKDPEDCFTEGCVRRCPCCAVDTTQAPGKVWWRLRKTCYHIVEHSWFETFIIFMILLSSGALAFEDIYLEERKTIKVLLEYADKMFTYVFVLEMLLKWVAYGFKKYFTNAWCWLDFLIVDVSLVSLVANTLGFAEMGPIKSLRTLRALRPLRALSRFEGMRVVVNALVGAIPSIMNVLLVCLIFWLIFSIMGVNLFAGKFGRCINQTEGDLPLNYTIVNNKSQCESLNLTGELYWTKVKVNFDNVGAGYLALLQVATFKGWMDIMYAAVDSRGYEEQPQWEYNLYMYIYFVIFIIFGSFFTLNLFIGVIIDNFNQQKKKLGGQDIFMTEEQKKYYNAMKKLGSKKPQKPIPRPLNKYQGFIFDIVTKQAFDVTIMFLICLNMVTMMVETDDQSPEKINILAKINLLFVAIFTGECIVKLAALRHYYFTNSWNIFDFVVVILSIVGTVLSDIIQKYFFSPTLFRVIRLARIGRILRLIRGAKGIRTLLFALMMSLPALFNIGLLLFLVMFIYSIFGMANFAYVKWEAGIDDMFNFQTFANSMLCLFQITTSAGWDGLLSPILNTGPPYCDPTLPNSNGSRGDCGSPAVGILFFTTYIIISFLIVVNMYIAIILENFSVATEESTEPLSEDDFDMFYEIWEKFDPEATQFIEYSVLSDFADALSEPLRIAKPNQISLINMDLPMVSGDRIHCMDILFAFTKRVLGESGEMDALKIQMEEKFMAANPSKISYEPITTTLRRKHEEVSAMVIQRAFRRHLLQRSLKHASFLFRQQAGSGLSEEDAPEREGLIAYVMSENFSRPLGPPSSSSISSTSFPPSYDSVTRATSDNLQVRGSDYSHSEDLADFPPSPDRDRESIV

Row | Structure (SMILES) | inhibition at 3 µM [1, 2] [%] | inhibition at 3 µM [1, 3] [%] | inhibition at 1 µM (hNaV1.1 (SCN1A)) [%] | inhibition at 10 µM (hNaV1.1 (SCN1A)) [%]
1 | Cc1cc(C(F)(F)F)ccc1-c1ccc2c(c1)CN(Cc1ncccn1)C(=O)O2 [Example 37, 6-(2-methyl-4-(trifluoromethyl)phenyl)-3-(pyrimidin-2-ylmethyl)-3,4-dihydro-2H-benzo[e][1,3]oxazin-2-one] | < 5 | 14 | 7.3 | 67.7
2 | O=C1Oc2ccc(-c3ccc(C4(C(F)(F)F)CC4)cc3)cc2CN1Cc1ncccn1 [Example 38, 3-(pyrimidin-2-ylmethyl)-6-(4-(1-(trifluoromethyl)cyclopropyl)phenyl)-3,4-dihydro-2H-benzo[e][1,3]oxazin-2-one] | < 5 | 55.6 | 49 | 78.1
3 | CC(C)Oc1cc(OC(F)(F)F)ccc1-c1ccc2c(c1)CN(Cc1ncccn1)C(=O)O2 [Example 39, 6-(2-isopropoxy-4-(trifluoromethoxy)phenyl)-3-(pyrimidin-2-ylmethyl)-3,4-dihydro-2H-benzo[e][1,3]oxazin-2-one] | 5.9 | 17.5 | 39.1 | 73.4
4 | CCOc1cc(OC(F)(F)F)ccc1-c1ccc2c(c1)CN(Cc1ncccn1)C(=O)O2 [Example 40, 6-(2-ethoxy-4-(trifluoromethoxy)phenyl)-3-(pyrimidin-2-ylmethyl)-3,4-dihydro-2H-benzo[e][1,3]oxazin-2-one] | 10.2 | 22.4 | 22.6 | 71.3
5 | Cc1cnc(CN2Cc3cc(-c4ccc(C(F)(F)F)cc4F)ccc3OC2=O)nc1 [Example 41, 6-(2-fluoro-4-(trifluoromethyl)phenyl)-3-((5-methylpyrimidin-2-yl)methyl)-3,4-dihydro-2H-benzo[e][1,3]oxazin-2-one] | < 5 | 17.5 | < 5 | 29
6 | COc1cc(C(F)(F)F)ccc1-c1ccc2c(c1)CN(Cc1ncc(C)cn1)C(=O)O2 [Example 42, 6-(2-methoxy-4-(trifluoromethyl)phenyl)-3-((5-methylpyrimidin-2-yl)methyl)-3,4-dihydro-2H-benzo[e][1,3]oxazin-2-one] | < 5 | 12.7 | 11.5 | 47.9
7 | Cc1cnc(CN2Cc3cc(-c4ccc(C(F)(F)F)cc4C)ccc3OC2=O)nc1 [Example 43, 6-(2-methyl-4-(trifluoromethyl)phenyl)-3-((5-methylpyrimidin-2-yl)methyl)-3,4-dihydro-2H-benzo[e][1,3]oxazin-2-one] | < 5 | 19.2 | < 5 | 51.4
8 | COc1cc(C(F)(F)F)ccc1-c1ccc2c(c1)CN(Cc1cccc(C)n1)C(=O)O2 [Example 44, 6-(2-methoxy-4-(trifluoromethyl)phenyl)-3-((6-methylpyridin-2-yl)methyl)-3,4-dihydro-2H-benzo[e][1,3]oxazin-2-one] | < 5 | 21.6 | 25 | 84.5
9 | Cc1cccc(CN2Cc3cc(-c4ccc(C(F)(F)F)cc4F)ccc3OC2=O)n1 [Example 45, 6-(2-fluoro-4-(trifluoromethyl)phenyl)-3-((6-methylpyridin-2-yl)methyl)-3,4-dihydro-2H-benzo[e][1,3]oxazin-2-one] | < 5 | 33.5 | 19.9 | 72.8
10 | COc1cc(OC(F)(F)F)ccc1-c1ccc2c(c1)CN(Cc1cccc(C)n1)C(=O)O2 [Example 46, 6-(2-methoxy-4-(trifluoromethoxy)phenyl)-3-((6-methylpyridin-2-yl)methyl)-3,4-dihydro-2H-benzo[e][1,3]oxazin-2-one] | < 5 | 34.7 | 19 | 78.6
11 | Cc1cccc(CN2Cc3cc(-c4ccc(OC(F)(F)F)cc4F)ccc3OC2=O)n1 [Example 47, 6-(2-fluoro-4-(trifluoromethoxy)phenyl)-3-((6-methylpyridin-2-yl)methyl)-3,4-dihydro-2H-benzo[e][1,3]oxazin-2-one] | < 5 | 44.3 | < 5 | 69.2
12 | CC1c2cc(-c3ccc(OC(F)(F)F)cc3)ccc2OC(=O)N1Cc1ncccn1 (stereo not drawn) [Example 48, 4-methyl-3-(pyrimidin-2-ylmethyl)-6-(4-(trifluoromethoxy)phenyl)-3,4-dihydro-2H-benzo[e][1,3]oxazin-2-one] | – | 12.1 | 32.5 | 73.3
13 | CC1c2cc(-c3cccc(OC(F)(F)F)c3)ccc2OC(=O)N1Cc1ncccn1 (stereo not drawn) [Example 50, 4-methyl-3-(pyrimidin-2-ylmethyl)-6-(3-(trifluoromethoxy)phenyl)-3,4-dihydro-2H-benzo[e][1,3]oxazin-2-one] | 12.1 | 17.7 | 10.1 | 71.2
14 | Cc1csc(CN2Cc3cc(-c4ccc(OC(F)(F)F)cc4)ccc3OC2=O)n1 [Example 52, 3-((4-methylthiazol-2-yl)methyl)-6-(4-(trifluoromethoxy)phenyl)-3,4-dihydro-2H-benzo[e][1,3]oxazin-2-one] | < 5 | 11.9 | 32.9 | 57.6
15 | Cc1csc(CN2Cc3cc(-c4ccc(OC(F)(F)F)c(F)c4)ccc3OC2=O)n1 [Example 53, 6-(3-fluoro-4-(trifluoromethoxy)phenyl)-3-((4-methylthiazol-2-yl)methyl)-3,4-dihydro-2H-benzo[e][1,3]oxazin-2-one] | < 5 | 19.8 | 52.7 | 87.6
16 | Cc1csc(CN2Cc3cc(-c4ccc(OC(F)(F)F)c(C)c4)ccc3OC2=O)n1 [Example 54, 6-(3-methyl-4-(trifluoromethoxy)phenyl)-3-((4-methylthiazol-2-yl)methyl)-3,4-dihydro-2H-benzo[e][1,3]oxazin-2-one] | < 5 | 11.2 | < 5 | 36.7
17 | Cc1csc(CN2Cc3cc(-c4ccc(OC(F)(F)F)cc4F)ccc3OC2=O)n1 [Example 55, 6-(2-fluoro-4-(trifluoromethoxy)phenyl)-3-((4-methylthiazol-2-yl)methyl)-3,4-dihydro-2H-benzo[e][1,3]oxazin-2-one] | < 5 | 16.1 | < 5 | 55
18 | Cc1csc(CN2Cc3cc(-c4ccc(Cl)c(Cl)c4)ccc3OC2=O)n1 [Example 56, 6-(3,4-dichlorophenyl)-3-((4-methylthiazol-2-yl)methyl)-3,4-dihydro-2H-benzo[e][1,3]oxazin-2-one] | < 5 | – | < 5 | 10.7
19 | Cc1csc(CN2Cc3cc(-c4ccc(OC(F)(F)F)cc4Cl)ccc3OC2=O)n1 [Example 57, 6-(2-chloro-4-(trifluoromethoxy)phenyl)-3-((4-methylthiazol-2-yl)methyl)-3,4-dihydro-2H-benzo[e][1,3]oxazin-2-one] | < 5 | – | < 5 | 48.8
20 | COc1cc(OC(F)(F)F)ccc1-c1ccc2c(c1)CN(Cc1nc(C)cs1)C(=O)O2 [Example 58, 6-(2-methoxy-4-(trifluoromethoxy)phenyl)-3-((4-methylthiazol-2-yl)methyl)-3,4-dihydro-2H-benzo[e][1,3]oxazin-2-one] | < 5 | 7.9 | 7.8 | 68.7
21 | Cc1csc(CN2Cc3cc(-c4ccc(Cl)c(F)c4)ccc3OC2=O)n1 [Example 59, 6-(4-chloro-3-fluorophenyl)-3-((4-methylthiazol-2-yl)methyl)-3,4-dihydro-2H-benzo[e][1,3]oxazin-2-one] | < 5 | 13 | 20.7 | 39.9

Reference: patent publication US9416128B2, “Fused heterocyclic compounds as ion channel modulators” (Gilead Sciences, Inc., priority 2013, dated 2016)
